Legend:
[1] = Thermodynamic solubility of the compound at pH 6.8 using crystalline form of sample; type: physicochemical
[2] = molecular target: Tyrosine-protein kinase JAK1 (Homo sapiens, UniProt P23458); test: Inhibition of GST-fused JAK1 (866 to 1154 residues)(unknown origin) using FITC-Ahr-KKSRGDYMTMQIG-NH2 peptide as substrate incubated for 30 mins in presence of ATP by caliper microfluidic mobility shift assay
JAK3/JAK1 = JAK3/JAK1 (Homo sapiens, UniProt P23458+P52333); test: Inhibition of JAK1/3-mediated STAT5 phosphorylation in human M07E cells preincubated for 30 mins followed by IL-15 stimulation measured after 15 mins by flow cytometry; type: cell-based
Sequence of JAK3/JAK1 (P23458 whole entry, one chain of several): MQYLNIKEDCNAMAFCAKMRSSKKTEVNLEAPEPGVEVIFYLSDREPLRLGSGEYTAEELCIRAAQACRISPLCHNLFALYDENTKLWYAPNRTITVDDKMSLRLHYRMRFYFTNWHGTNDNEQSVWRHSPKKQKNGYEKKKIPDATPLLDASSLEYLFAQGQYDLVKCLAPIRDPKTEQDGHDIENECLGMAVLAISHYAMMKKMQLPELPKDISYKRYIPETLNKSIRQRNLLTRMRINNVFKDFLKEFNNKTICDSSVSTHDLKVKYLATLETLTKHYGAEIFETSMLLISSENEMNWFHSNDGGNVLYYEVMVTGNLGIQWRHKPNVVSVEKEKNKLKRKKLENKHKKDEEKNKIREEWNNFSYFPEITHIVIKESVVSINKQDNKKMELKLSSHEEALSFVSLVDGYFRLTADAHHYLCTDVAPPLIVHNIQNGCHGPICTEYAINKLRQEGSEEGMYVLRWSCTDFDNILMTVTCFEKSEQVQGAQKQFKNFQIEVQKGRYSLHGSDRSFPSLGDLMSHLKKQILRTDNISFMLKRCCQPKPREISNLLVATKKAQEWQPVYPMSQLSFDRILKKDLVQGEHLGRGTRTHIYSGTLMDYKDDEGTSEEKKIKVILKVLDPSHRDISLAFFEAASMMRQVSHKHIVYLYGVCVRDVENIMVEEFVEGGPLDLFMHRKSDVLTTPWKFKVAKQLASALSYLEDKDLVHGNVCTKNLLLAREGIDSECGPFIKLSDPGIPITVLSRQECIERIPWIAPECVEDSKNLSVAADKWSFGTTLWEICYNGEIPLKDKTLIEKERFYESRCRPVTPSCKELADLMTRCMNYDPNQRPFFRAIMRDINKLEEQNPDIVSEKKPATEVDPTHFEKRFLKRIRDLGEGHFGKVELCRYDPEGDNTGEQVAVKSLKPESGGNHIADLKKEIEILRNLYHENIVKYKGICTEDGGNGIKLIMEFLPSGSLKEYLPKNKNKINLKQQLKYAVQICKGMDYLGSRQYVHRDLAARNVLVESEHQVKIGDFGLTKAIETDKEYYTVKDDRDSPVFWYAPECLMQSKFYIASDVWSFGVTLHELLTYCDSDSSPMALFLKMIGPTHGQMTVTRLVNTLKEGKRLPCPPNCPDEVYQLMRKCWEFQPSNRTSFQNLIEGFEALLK

[3] = molecular target: T1, Mitogen-activated protein kinase kinase kinase 2 (Homo sapiens, UniProt Q9Y2U5); test: Inhibition of MAP3K2 (unknown origin)
T1 sequence (Q9Y2U5 whole entry): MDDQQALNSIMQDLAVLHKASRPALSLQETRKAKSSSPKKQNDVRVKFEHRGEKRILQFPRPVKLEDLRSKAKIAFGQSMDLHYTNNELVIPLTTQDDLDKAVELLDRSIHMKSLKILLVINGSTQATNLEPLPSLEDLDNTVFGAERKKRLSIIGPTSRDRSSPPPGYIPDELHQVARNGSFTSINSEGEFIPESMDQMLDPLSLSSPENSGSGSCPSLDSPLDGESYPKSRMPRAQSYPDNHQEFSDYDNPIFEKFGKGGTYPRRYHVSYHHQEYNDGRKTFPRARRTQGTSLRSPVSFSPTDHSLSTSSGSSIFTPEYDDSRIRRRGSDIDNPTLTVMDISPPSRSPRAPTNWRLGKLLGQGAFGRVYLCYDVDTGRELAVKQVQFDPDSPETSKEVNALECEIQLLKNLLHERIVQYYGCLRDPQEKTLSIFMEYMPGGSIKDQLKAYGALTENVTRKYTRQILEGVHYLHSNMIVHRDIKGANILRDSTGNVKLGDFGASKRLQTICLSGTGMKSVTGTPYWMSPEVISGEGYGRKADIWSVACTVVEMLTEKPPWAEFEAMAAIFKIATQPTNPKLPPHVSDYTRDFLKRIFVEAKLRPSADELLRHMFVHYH

[4] = molecular target: T2, Tyrosine-protein kinase JAK3 (Homo sapiens, UniProt P52333); test: Inhibition of GST-fused JAK3 (811 to 1124 residues)(unknown origin) using Carboxyfluorescein-Ahx-GGEEEEYFELVKKKK peptide as substrate incubated for 30 mins in presence of ATP by caliper microfluidic mobility shift assay
T2 sequence (P52333 whole entry): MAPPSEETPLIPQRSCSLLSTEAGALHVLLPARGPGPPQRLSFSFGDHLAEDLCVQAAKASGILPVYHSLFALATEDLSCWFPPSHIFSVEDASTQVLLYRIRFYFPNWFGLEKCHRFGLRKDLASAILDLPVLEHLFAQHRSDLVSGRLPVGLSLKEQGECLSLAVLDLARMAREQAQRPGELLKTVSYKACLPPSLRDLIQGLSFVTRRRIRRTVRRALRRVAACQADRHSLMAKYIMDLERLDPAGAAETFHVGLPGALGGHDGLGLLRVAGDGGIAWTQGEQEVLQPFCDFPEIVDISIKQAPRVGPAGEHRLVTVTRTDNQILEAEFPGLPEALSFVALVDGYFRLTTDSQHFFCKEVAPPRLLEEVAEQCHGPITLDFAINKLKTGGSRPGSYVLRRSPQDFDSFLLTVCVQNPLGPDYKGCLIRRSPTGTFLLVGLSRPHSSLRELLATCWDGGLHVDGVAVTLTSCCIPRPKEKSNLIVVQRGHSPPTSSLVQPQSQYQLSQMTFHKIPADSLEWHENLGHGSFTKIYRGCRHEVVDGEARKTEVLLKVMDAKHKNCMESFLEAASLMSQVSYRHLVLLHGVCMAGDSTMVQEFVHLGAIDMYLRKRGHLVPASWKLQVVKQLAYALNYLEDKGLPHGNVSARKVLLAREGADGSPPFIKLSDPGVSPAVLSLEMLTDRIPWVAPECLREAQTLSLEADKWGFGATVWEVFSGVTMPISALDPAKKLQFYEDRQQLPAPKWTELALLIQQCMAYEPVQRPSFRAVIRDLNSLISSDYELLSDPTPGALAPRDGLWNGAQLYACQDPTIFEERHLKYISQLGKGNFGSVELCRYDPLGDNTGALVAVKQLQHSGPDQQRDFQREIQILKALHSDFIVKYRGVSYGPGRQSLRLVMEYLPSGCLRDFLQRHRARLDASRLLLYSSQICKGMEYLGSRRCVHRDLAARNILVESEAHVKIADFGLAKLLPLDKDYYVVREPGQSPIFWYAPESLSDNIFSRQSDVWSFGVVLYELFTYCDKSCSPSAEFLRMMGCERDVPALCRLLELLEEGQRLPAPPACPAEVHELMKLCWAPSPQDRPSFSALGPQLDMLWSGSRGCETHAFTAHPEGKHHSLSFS

[5] = Stability of compound under temperature stress assessed as compound degradation at 50 degreeC measured after 7 days using crystalline form of sample; type: physicochemical; details: time 7 day; read-out: Drug degradation
[6] = Drug metabolism in rat assessed as excretion of 2-(6-((5-carbamoyl-4-((2-methoxyphenyl)amino)pyridin-2-yl)amino)pyridin-3-yl)acetic acid metabolite by measuring half life; type: ADME
[7] = Metabolic stability in human skin S9 fraction measured upto 120 mins by LC-MS analysis; type: ADME, subcellular

Sequence of Tyrosine-protein kinase JAK1 (P23458 whole entry, the tested form may be a part): as the sequence (P23458 whole entry, one chain of several) above

`COC[C@@H](C)OC(=O)Cc1ccc(Nc2cc(Nc3ccccc3OC)c(C(N)=O)cn2)nc1` gave a Therm_solubility [1] of 7 ng/mL, an IC50 [2] of 5 nM and an IC50 (JAK3/JAK1) of 131 nM. The IC50 [3] was less than 100 nM, the IC50 [4] was 4 nM and the degraded at 168 h [5] was 0.4%. It also gave a t1/2 [6] of less than 20 min and a half-life [7] of 42 min.
